Values quoted from earlier work, collected in US7064109B2, “Pharmaceutical composition based on macrolides for topical application in ophthalmology” (priority 2001, dated 2006).

Tested on: all sensitive microorganisms

For `CC[C@H]1OC(=O)[C@H](C)[C@@H](O[C@H]2C[C@@](C)(OC)[C@@H](O)[C@H](C)O2)[C@H](C)[C@@H](O[C@@H]2O[C@H](C)C[C@H](N(C)C)[C@H]2O)[C@](C)(O)C[C@@H](C)CN(C)[C@H](C)[C@@H](O)[C@]1(C)O` [azithromycin, N-methyl-11-aza-10-deoxo-10-dihydroerythromycin], the “minimum level for eliminating microorganisms” value (conjunctival level) is listed as 0.25 µg/g and the minimum inhibitory concentration (minimum concentration for therapeutic effectiveness in the eyes, all sensitive microorganisms) is listed as 0.5 µg/g.
